Experimental data taken from PMC2289708 (The Journal of Cell Biology, 1992).

Columns and labels:
[1] = test system: F-actin in human PMNs; experiment: F-actin level in PMNs, rhodamine phalloidin binding; format: cell-based
[2] = ref Safer et al., 1990; cited from earlier work
[3] = test system: platelet actin (cell actin); conditions: ref Weber et al., 1992, cited from earlier work
[4] = target: muscle G-actin; experiment: TB4 binding to muscle G-actin from rates of pyrenyl actin elongation; parameters: species or system rabbit
[5] = format: in vitro ADME, human; conditions: lysed on ice for 5 min before addition of PCA, relative to samples receiving PCA <30 s after lysis; HPLC; not shown
[6] = target: muscle G-actin; conditions: cited from earlier work
[7] = test system: G-actin; experiment: Non-denaturing PAGE and immunoblot of PMN supernatants for G-actin/TB4 complex; format: binding, human
[8] = test system: G-actin/TB4 complex in human PMNs; experiment: Change in G-actin/TB4 complex band after stimulation of PMNs; format: cell-based; conditions: 10^-7 M FNLLP, 30 s
[9] = target: pyrenyl G-actin (Oryctolagus cuniculus, UniProt P68135); format: biochemical, rabbit

C=C1[C@@H](C)[C@H]2[C@H](Cc3ccccc3)NC(=O)[C@]23OC(=O)/C=C/[C@H](O)CCC[C@@H](C)C/C=C/[C@H]3[C@@H]1O [cytochalasin B]
effect on chemoattractant induced increase in F-actin ([1]; cytochalasin B with FNLLP, 2 μM in Fig. 3a): blocks the chemoattractant induced in- crease in F-actin

Thymosin beta 4 [TB4]
activity after boiling [2]: remains active after boiling | Kd ([3]; read-out: Kd for platelet / cell actin): 600 nM | affinity for nonmuscle vs muscle actin [3]: approximately threefold higher | kinetics of bovine spleen T beta 4 binding to muscle pyrenyl G-actin [4]: sufficiently rapid to accommodate the rapid changes in actin polymerization and depolymerization observed in vivo | effect of preincubation with TB4 on polymerization rate ([4]; 2 μM pyrenyl G-actin with 5 μM TB4, F-actin nuclei): slower rate of polymerization | time for slope to shift to that of preincubated samples ([4]; 5 μM TB4 added after polymerization started, mixing interval, all n = 7 samples): ≤ 6 s | kon (rate constant of binding), minimal ([4]; bovine spleen TB4 5 μM, 2 μM pyrenyl muscle G-actin, Equation 1, SD 0.003, n = 7): > 45000 M⁻¹ s⁻¹ | koff, minimal ([4]; from Kd and minimal kon, muscle actin): greater than 0.09 s-1 | TB4 remaining in cell lysate [5]: 95% | Kd ([6]; read-out: Kd for muscle actin (literature), ref Weber et al., 1992): 2000 nM | kon (literature) ([6]; ref Goldschmidt-Clermont et al. (1992)): 0.75 s⁻¹ | effect of PIPs on binding ([6]; ref Janmey et al., 1992): nor affected by PIPs | binding to pyrene vs unlabeled muscle actin ([6]; ref Weber et al., 1992): binds equally well to pyrene and unlabeled muscle actin | calcium sensitivity of binding ([6]; ref Weber et al., 1992): neither calcium sensitive | PMN band antibody reactivity (actin and TB4) ([7]; immunoblot of band with mobility similar to actin/TB4 complex): reacts positively with antibodies to both actin | fraction of G-actin migrating like G-actin/T beta 4 complex ([7]; supernatants from resting PMNs, 7.5% non-denaturing gels): a large fraction of G-actin in supernatants prepared from resting PMNs has a mobility similar to the G- actin/T beta 4 complex

formylnorleucyileucylphenylalanine [FNLLP]
TB4 staining of actin/TB4 band after stimulation, anti-TB4 immunoblot ([8]; 23°C, n = 6): 53 + 9 % of the resting cell level | intensity of G-actin/TB4 band, Coomassie blue ([8]; non-denaturing gel): reduces the intensity of the G-actin/T~4 band | slope of pyrenyl actin polymerization in stimulated cell supernatant ([9]; Fig. 4, R2 = 0.777, resting supernatant slope 13.6, 10^-7 M FNLLP, 30 s): 6.1 fluorescent U/min | inhibitory activity of boiled supernatants, resting vs stimulated ([9]; boiled supernatants from resting and FNLLP-stimulated cells, not shown): approximately equal inhibitory activity | rate of pointed end polymerization in stimulated supernatant (Fig. 4) ([9]; single experiment of Fig. 4, 10^-7 M FNLLP, 30 s): 45 % of the rate in the resting supernatant | F-actin upon stimulation ([1]; 10^-7 M FNLLP, 30 s, n = 6): 200 + 42 % of the amount in resting cel | F-actin of stimulated vs resting cells (Fig. 4 experiment) ([1]; 10^-7 M FNLLP, 30 s, not shown): approximately twice | F-actin increase upon stimulation (Fig. 3a) ([1]; 10^-7 M FNLLP, 30 s, single representative experiment of Fig. 3): 1.5 fold
